Assay results published in patent US9795139B2, “Molecules having pesticidal utility, and intermediates, compositions, and processes, related thereto” (priority 2015, dated 2017).

Tests used:
[1] = system: Beet Armyworm (Spodoptera exigua, LAPHEG); test: Bioassay on Beet Armyworm (BAW), 128-well diet tray assay; assay type: in vivo; settings: 168 h, 50 μg/cm^2 on artificial diet, second instar larvae, 25° C., five to seven days, average of eight wells, read-out: BAW % Control (or Mortality) rating
Procedure: (§1) Certain molecules disclosed in this document were tested against BAW and CL using procedures described in the following examples. In the reporting of the results, the “BAW & CL Rating Table” was used (See Table Section).
Bioassays on BAW were conducted using a 128-well diet tray assay. One to five second instar BAW larvae were placed in each well (3 mL) of the diet tray that had been previously filled with approximately 1.5 mL of artificial diet to which 50 μg/cm^2 of the test molecule (dissolved in 50 μL of 90:10 acetone-water mixture) had been applied (to each of eight wells) and then allowed to dry. Trays were covered with a clear self-adhesive cover, vented to allow gas exchange, and held at 25° C., 14:10 light-dark for five to seven days. Percent mortality was recorded for the larvae in each well; activity in the eight wells was then averaged. The results are indicated in the table entitled “Table ABC: Biological Results” (See Table Section).

[2] = system: Cabbage Looper (Trichoplusia ni, TRIPNI); test: Bioassay on Cabbage Looper (CL), 128-well diet tray assay; assay type: in vivo; settings: 168 h, 50 μg/cm^2 on artificial diet, second instar larvae, 25° C., five to seven days, average of eight wells, read-out: CL % Control (or Mortality) rating
Procedure: as §1
Bioassays on CL were conducted using a 128-well diet tray assay. one to five second instar CL larvae were placed in each well (3 mL) of the diet tray that had been previously filled with 1 mL of artificial diet to which 50 μg/cm^2 of the test molecule (dissolved in 50 μL of 90:10 acetone-water mixture) had been applied (to each of eight wells) and then allowed to dry. Trays were covered with a clear self-adhesive cover, vented to allow gas exchange, and held at 25° C., 14:10 light-dark for five to seven days. Percent mortality was recorded for the larvae in each well; activity in the eight wells was then averaged. The results are indicated in the table entitled “Table ABC: Biological Results” (See Table Section).

| SMILES | mortality at 50 µg/cm2 [1] [%] | mortality at 50 µg/cm2 [2] [%] |
| --- | --- | --- |
| O=C(NC1CC(F)(F)C1)c1cc(NC(=O)[C@H]2[C@H](c3cc(Cl)c(Cl)c(Cl)c3)C2(Cl)Cl)ccc1Cl (relative stereo) [Molecule F6, trans-2-Chloro-5-(2,2-dichloro-3-(3,4,5-trichlorophenyl)cyclopropanecarboxamido)-N-(3,3-difluorocyclobutyl)benzamide] | 50 to 100 | 50 to 100 |
| O=C(NC1CCSC1)c1cc(NC(=O)[C@H]2[C@H](c3cc(Cl)cc(Cl)c3)C2(Cl)Cl)ccc1Cl (relative stereo) [Molecule F7, trans-2-Chloro-5-(2,2-dichloro-3-(3,5-dichlorophenyl)cyclopropanecarboxamido)-N-(tetrahydrothiophen-3-yl)benzamide] | 50 to 100 | 50 to 100 |
| O=C(NC1CC(F)(F)C1)c1cc(NC(=O)[C@H]2[C@H](c3cc(Cl)c(Cl)cc3Cl)C2(Cl)Cl)ccc1Cl (relative stereo) [Molecule F20, trans-2-Chloro-5-(2,2-dichloro-3-(2,4,5-trichlorophenyl)cyclopropanecarboxamido)-N-(3,3-difluorocyclobutyl)benzamide] | 50 to 100 | 50 to 100 |
| N#CC1(NC(=O)c2cc(NC(=O)[C@H]3[C@H](c4ccc(C(F)(F)F)cc4)C3(Cl)Cl)ccc2Cl)CC1 (relative stereo) [Molecule F23, trans-2-Chloro-N-(1-cyanocyclopropyl)-5-(2,2-dichloro-3-(4-(trifluoromethyl)phenyl)cyclopropanecarboxamido)benzamide] | 50 to 100 | 50 to 100 |
| O=C(NC1CC(F)(F)C1)c1cc(NC(=O)[C@H]2[C@H](c3cc(C(F)(F)F)cc(C(F)(F)F)c3)C2(Cl)Cl)ccc1Cl (relative stereo) [Molecule F24, trans-5-(3-(3,5-Bis(trifluoromethyl)phenyl)-2,2-dichlorocyclopropanecarboxamido)-2-chloro-N-(3,3-difluorocyclobutyl)benzamide] | 50 to 100 | 50 to 100 |
| N#CC1(NC(=O)c2cc(NC(=O)[C@H]3[C@H](c4cc(C(F)(F)F)cc(C(F)(F)F)c4)C3(Cl)Cl)ccc2Cl)CC1 (relative stereo) [Molecule F25, trans-5-(3-(3,5-Bis(trifluoromethyl)phenyl)-2,2-dichlorocyclopropanecarboxamido)-2-chloro-N-(1-cyanocyclopropyl)benzamide] | 50 to 100 | 50 to 100 |
| O=C(NC1CC(F)(F)C1)c1cc(NC(=O)[C@H]2[C@H](c3cc(Cl)cc(C(F)(F)F)c3)C2(Cl)Cl)ccc1Cl (relative stereo) [Molecule F26, trans-2-Chloro-5-(2,2-dichloro-3-(3-chloro-5-(trifluoromethyl)phenyl)cyclopropanecarboxamido)-N-(3,3-difluorocyclobutyl)benzamide] | 50 to 100 | 50 to 100 |
| N#CC1(NC(=O)c2cc(NC(=O)[C@H]3[C@H](c4cc(Cl)cc(C(F)(F)F)c4)C3(Cl)Cl)ccc2Cl)CC1 (relative stereo) [Molecule F27, trans-2-Chloro-N-(1-cyanocyclopropyl)-5-(2,2-dichloro-3-(3-chloro-5-(trifluoromethyl)phenyl)cyclopropanecarboxamido)benzamide] | 50 to 100 | 50 to 100 |
| O=C(NC1CC(F)(F)C1)c1cc(NC(=O)[C@H]2[C@H](c3cc(Br)cc(Br)c3)C2(Cl)Cl)ccc1Cl (relative stereo) [Molecule F28, trans-2-Chloro-5-(2,2-dichloro-3-(3,5-dibromophenyl)cyclopropanecarboxamido)-N-(3,3-difluorocyclobutyl)benzamide] | 50 to 100 | 50 to 100 |
| N#CC1(NC(=O)c2cc(NC(=O)[C@H]3[C@H](c4cc(Br)cc(Br)c4)C3(Cl)Cl)ccc2Cl)CC1 (relative stereo) [Molecule F29, trans-2-Chloro-N-(1-cyanocyclopropyl)-5-(2,2-dichloro-3-(3,5-dibromophenyl)cyclopropanecarboxamido)benzamide] | 50 to 100 | 50 to 100 |
| O=C(NC1CC(F)(F)C1)c1cc(NC(=O)[C@H]2[C@H](c3cc(Cl)c(F)c(Cl)c3)C2(Cl)Cl)ccc1Cl (relative stereo) [Molecule F30, trans-2-Chloro-5-(2,2-dichloro-3-(3,5-dichloro-4-fluorophenyl)cyclopropanecarboxamido)-N-(3,3-difluorocyclobutyl)benzamide] | 50 to 100 | 50 to 100 |
| N#CC1(NC(=O)c2cc(NC(=O)[C@H]3[C@H](c4cc(Cl)c(F)c(Cl)c4)C3(Cl)Cl)ccc2Cl)CC1 (relative stereo) [Molecule F31, trans-2-Chloro-N-(1-cyanocyclopropyl)-5-(2,2-dichloro-3-(3,5-dichloro-4-fluorophenyl)cyclopropanecarboxamido)benzamide] | 50 to 100 | 50 to 100 |
| O=C(NC1CC(F)(F)C1)c1cc(NC(=O)[C@H]2[C@H](c3ccccc3)C2(Cl)Cl)ccc1Cl (relative stereo) [Molecule F37, trans-2-Chloro-5-(2,2-dichloro-3-phenylcyclopropanecarboxamido)-N-(3,3-difluorocyclobutyl)benzamide] | 50 to 100 | 50 to 100 |
| N#CC1(NC(=O)c2cc(NC(=O)[C@H]3[C@H](c4ccccc4)C3(Cl)Cl)ccc2Cl)CC1 (relative stereo) [Molecule F38, trans-2-Chloro-N-(1-cyanocyclopropyl)-5-(2,2-dichloro-3-phenylcyclopropanecarboxamido)benzamide] | 50 to 100 | 50 to 100 |
| Cc1cc(Cl)cc([C@H]2[C@H](C(=O)Nc3ccc(Cl)c(C(=O)NC4(C#N)CC4)c3)C2(Cl)Cl)c1 (relative stereo) [Molecule F47, trans-2-Chloro-N-(1-cyanocyclopropyl)-5-(2,2-dichloro-3-(3-chloro-5-methylphenyl)cyclopropanecarboxamido)benzamide] | 50 to 100 | 50 to 100 |
| Cc1c(Cl)cc([C@H]2[C@H](C(=O)Nc3ccc(Cl)c(C(=O)NC4(C#N)CC4)c3)C2(Cl)Cl)cc1Cl (relative stereo) [Molecule F49, trans-2-Chloro-N-(1-cyanocyclopropyl)-5-(2,2-dichloro-3-(3,5-dichloro-4-methylphenyl)cyclopropanecarboxamido)benzamide] | 50 to 100 | 50 to 100 |
| O=C(NN1CCOCC1)c1cc(NC(=O)[C@H]2[C@H](c3cc(Cl)cc(Cl)c3)C2(Cl)Cl)ccc1Cl (relative stereo) [Molecule F52, trans-2-Chloro-5-(2,2-dichloro-3-(3,5-dichlorophenyl)cyclopropanecarboxamido)-N-morpholinobenzamide] | 50 to 100 | 50 to 100 |
| O=C(NC1CS(=O)(=O)C1)c1cc(NC(=O)[C@H]2[C@H](c3cc(Cl)c(Cl)c(Cl)c3)C2(Cl)Cl)ccc1Cl (relative stereo) [Molecule F58, trans-2-chloro-5-(2,2-dichloro-3-(3,4,5-trichlorophenyl)cyclopropanecarboxamido)-N-(1,1-dioxidothietan-3-yl)benzamide] | 50 to 100 | 50 to 100 |
| O=C(NC1CNC1)c1cc(NC(=O)[C@H]2[C@H](c3cc(Cl)cc(Cl)c3)C2(Cl)Cl)ccc1Cl (relative stereo) [Molecule F59, trans-N-(azetidin-3-yl)-2-chloro-5-(2,2-dichloro-3-(3,5-dichlorophenyl)cyclopropanecarboxamido) benzamide] | 50 to 100 | 50 to 100 |
| O=C(NC1CN(C(=O)C(F)(F)F)C1)c1cc(NC(=O)[C@H]2[C@H](c3cc(Cl)cc(Cl)c3)C2(Cl)Cl)ccc1Cl (relative stereo) [Molecule F60, trans-2-chloro-5-(2,2-dichloro-3-(3,5-dichlorophenyl)cyclopropanecarboxamido)-N-(1-(2,2,2-trifluoroacetyl)azetidin-3-yl)benzamide] | 50 to 100 | 50 to 100 |
| N#CC1(NC(=O)c2cc(NC(=O)[C@H]3[C@H](c4ccc(Cl)c(F)c4)C3(Cl)Cl)ccc2Cl)CC1 (relative stereo) [PF2, trans-2-Chloro-N-(1-cyanocyclopropyl)-5-(2,2-dichloro-3-(4-chloro-3-fluorophenyl)cyclopropane-1-carboxamido)benzamide] | 50 to 100 | 50 to 100 |
| N#CC1(NC(=O)c2cc(NC(=O)[C@H]3[C@H](c4ccc(F)c(Cl)c4)C3(Cl)Cl)ccc2Cl)CC1 (relative stereo) [PF3, trans-2-Chloro-N-(1-cyanocyclopropyl)-5-(2,2-dichloro-3-(3-chloro-4-fluorophenyl)cyclopropane-1-carboxamido)benzamide] | 50 to 100 | 50 to 100 |
